Experiments:
[1] = target: Human GPR35 (Homo sapiens, UniProt Q9HC97); assay: Beta-Arrestin Assay (Tango U2OS cells, LiveBLAzer-FRET B/G); type: cell-based; conditions: Human GPR35 expressing Tango U2OS cells, 5 hours treatment
Procedure: Human GPR35 expressing Tango U2OS cells were plated in 384-well format in clear bottom plates at a cell density of 10,000 cells/well and allowed to grow overnight. The next day, cells were treated with serially diluted test compounds for 5 hours. LiveBLAzer-FRET B/G (CCF4-AM) detection reagents were then added and cells were allowed to incubate for 2 hours before reading plates on a BioTek Cytation 5 plate reader. Zaprinast was used as a positive control for dose-response curves. In order to determine EC50 values, data were fit to a four-parameter dose-response curve.

[2] = target: Human GPR35 (Homo sapiens, UniProt Q9HC97, S294R); assay: Alternative Beta-Arrestin Assay (JumpIn 294R Tango U2OS cells, LiveBLAzer-FRET B/G); type: cell-based; conditions: Human GPR35 expressing JumpIn 294R Tango U2OS cells, 5 hours treatment
Human GPR35 (Homo sapiens, UniProt Q9HC97, S294R), sequence (Q9HC97 whole entry S294R): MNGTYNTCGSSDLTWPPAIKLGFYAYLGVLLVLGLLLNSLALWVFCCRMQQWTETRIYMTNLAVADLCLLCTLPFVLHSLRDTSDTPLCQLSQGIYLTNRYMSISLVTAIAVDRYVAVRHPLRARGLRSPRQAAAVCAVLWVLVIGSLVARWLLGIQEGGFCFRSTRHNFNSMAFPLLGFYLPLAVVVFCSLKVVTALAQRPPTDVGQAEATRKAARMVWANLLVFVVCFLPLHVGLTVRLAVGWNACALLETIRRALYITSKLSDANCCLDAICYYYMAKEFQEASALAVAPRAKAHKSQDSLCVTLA
Summary of the method: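 Beta-arrestin recruitment measured as FRET ratio change using CCF4-AM loading for 2 h, following 5-hour compound treatment of GPR35 (S294R) JumpIn Tango U2OS cells. Zaprinast served as positive control; EC50 values from four-parameter dose-response fits.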

Human GPR35 (Homo sapiens, UniProt Q9HC97), sequence (Q9HC97 whole entry): as the sequence (Q9HC97 whole entry S294R) above, with R294S counted along it

EC50 [1] [µM] | EC50 [2] [µM] | SMILES
≤ 10 | ≤ 10 | CCOc1cc(Cc2ccccc2C(=O)O)ccc1-c1nc2[nH]nnc2c(=O)[nH]1 [Compound 175, 2-(3-ethoxy-4-(7-oxo-6,7-dihydro-3H-[1,2,3]triazolo[4,5-d]pyrimidin-5-yl)benzyl)benzoic acid]
≤ 10 | ≤ 10 | CCOc1cc(C(=O)N[C@H](CCC(=O)O)C(=O)O)ccc1-c1nc2[nH]nnc2c(=O)[nH]1 [Compound 169, (3-ethoxy-4-(7-oxo-6,7-dihydro-3H-[1,2,3]triazolo[4,5-d]pyrimidin-5-yl)benzoyl)-D-glutamic acid]
≤ 10 | ≤ 10 | CCOc1cc(-c2ccc(O)c(C(=O)O)c2)ccc1-c1nc2[nH]nnc2c(=O)[nH]1 [Compound 179, 3′-ethoxy-4-hydroxy-4′-(7-oxo-6,7-dihydro-3H-[1,2,3]triazolo[4,5-d]pyrimidin-5-yl)-[1,1′-biphenyl]-3-carboxylic acid]
≤ 10 | ≤ 10 | CCOc1cc(-c2cc(C(=O)O)cc(C(=O)O)c2)ccc1-c1nc2[nH]nnc2c(=O)[nH]1 [Compound 157, 3′-ethoxy-4′-(7-oxo-6,7-dihydro-3H-[1,2,3]triazolo[4,5-d]pyrimidin-5-yl)-[1,1′-biphenyl]-3,5-dicarboxylic acid]
≤ 10 | ≤ 10 | CCOc1cc(-c2ccc(OC)c(C(=O)O)c2)ccc1-c1nc2[nH]nnc2c(=O)[nH]1 [Compound 182, 3′-ethoxy-4-methoxy-4′-(7-oxo-6,7-dihydro-3H-[1,2,3]triazolo[4,5-d]pyrimidin-5-yl)-[1,1′-biphenyl]-3-carboxylic acid]
≤ 10 | ≤ 10 | CCOc1cc(Cc2cccc(C(=O)O)c2)ccc1-c1nc2[nH]nnc2c(=O)[nH]1 [Compound 176, 3-(3-ethoxy-4-(7-oxo-6,7-dihydro-3H-[1,2,3]triazolo[4,5-d]pyrimidin-5-yl)benzyl)benzoic acid]
≤ 10 | 10 to 50 | CCOc1cc(C(=O)N2CCCC(C(=O)O)C2)ccc1-c1nc2[nH]nnc2c(=O)[nH]1 (stereo not drawn) [Compound 172, 1-(3-ethoxy-4-(7-oxo-6,7-dihydro-3H-[1,2,3]triazolo[4,5-d]pyrimidin-5-yl)benzoyl)piperidine-3-carboxylic acid]
≤ 10 | ≤ 10 | CCOc1cc(-c2ccc(C)c(C(=O)O)c2)ccc1-c1nc2[nH]nnc2c(=O)[nH]1 [Compound 155, 3′-ethoxy-4-methyl-4′-(7-oxo-6,7-dihydro-3H-[1,2,3]triazolo[4,5-d]pyrimidin-5-yl)-[1,1′-biphenyl]-3-carboxylic acid]

The next lines start with the molecule.

SMILES | EC50 [1] [µM] | EC50 [2] [µM]
CCOc1cc(-c2ccccc2)ccc1-c1nc2[nH]nnc2c(=O)[nH]1 [Compound 101, 5-(3-Ethoxy-[1,1′-biphenyl]-4-yl)-3,6-dihydro-7H-[1,2,3]triazolo[4,5-d]pyrimidin-7-one] | ≤ 10 | ≤ 10
CCOc1cc(C(=O)NC2CCCC2)ccc1-c1nc2nn[nH]c2c(=O)[nH]1 [Compound 136, N-Cyclopentyl-3-ethoxy-4-(7-oxo-6,7-dihydro-3H-[1,2,3]triazolo[4,5-d]pyrimidin-5-yl)benzamide] | ≤ 10 | 10 to 50
CCOc1cc(-c2ccccc2CC(=O)O)ccc1-c1nc2[nH]nnc2c(=O)[nH]1 [Compound 119, 2-(3′-Ethoxy-4′-(7-oxo-6,7-dihydro-3H-[1,2,3]triazolo[4,5-d]pyrimidin-5-yl)-[1,1′-biphenyl]-2-yl)acetic acid] | ≤ 10 | ≤ 10
CCOc1cc(-c2ccc(C(=O)OC)s2)ccc1-c1nc2[nH]nnc2c(=O)[nH]1 [Compound 116, Methyl 5-(3-ethoxy-4-(7-oxo-6,7-dihydro-3H-[1,2,3]triazolo[4,5-d]pyrimidin-5-yl)phenyl)thiophene-2-carboxylate] | ≤ 10 | ≤ 10
CCOc1cc(-c2cccnc2)ccc1-c1nc2[nH]nnc2c(=O)[nH]1 [Compound 102, 5-(2-Ethoxy-4-(pyridin-3-yl)phenyl)-3,6-dihydro-7H-[1,2,3]triazolo[4,5-d]pyrimidin-7-one] | ≤ 10 | ≤ 10
CCOc1cc(C(=O)Nc2cccnc2)ccc1-c1nc2[nH]nnc2c(=O)[nH]1 [Compound 141, 3-ethoxy-4-(7-oxo-6,7-dihydro-3H-[1,2,3]triazolo[4,5-d]pyrimidin-5-yl)-N-(pyridin-3-yl)benzamide] | ≤ 10 | ≤ 10
CCOc1cc(-c2ccc(C(=O)O)cc2)ccc1-c1nc2[nH]nnc2c(=O)[nH]1 [Compound 111, 3′-Ethoxy-4′-(7-oxo-6,7-dihydro-3H-[1,2,3]triazolo[4,5-d]pyrimidin-5-yl)-[1,1′-biphenyl]-4-carboxylic acid] | ≤ 10 | ≤ 10
CCOc1cc(-c2ccc(CC(=O)OC)cc2)ccc1-c1nc2[nH]nnc2c(=O)[nH]1 [Compound 114, Methyl 2-(3′-ethoxy-4′-(7-oxo-6,7-dihydro-3H-[1,2,3]triazolo[4,5-d]pyrimidin-5-yl)-[1,1′-biphenyl]-4-yl)acetate] | ≤ 10 | ≤ 10
CCOc1cc(-c2cccc(C(=O)O)c2)ccc1-c1nc2[nH]nnc2c(=O)[nH]1 [Compound 110, 3′-Ethoxy-4′-(7-oxo-6,7-dihydro-3H-[1,2,3]triazolo[4,5-d]pyrimidin-5-yl)-[1,1′-biphenyl]-3-carboxylic acid] | ≤ 10 | ≤ 10
CCOc1cc(B(O)O)ccc1-c1nc2[nH]nnc2c(=O)[nH]1 [Compound 151, (3-ethoxy-4-(7-oxo-6,7-dihydro-3H-[1,2,3]triazolo[4,5-d]pyrimidin-5-yl)phenyl)boronic acid] | ≤ 10 | ≤ 10
CCOc1cc(-c2ccc(C(=O)OC)nc2)ccc1-c1nc2[nH]nnc2c(=O)[nH]1 [Compound 124, Methyl 5-(3-ethoxy-4-(7-oxo-6,7-dihydro-3H-[1,2,3]triazolo[4,5-d]pyrimidin-5-yl)phenyl)picolinate] | ≤ 10 | ≤ 10
CCOc1cc(-c2cnn(CC(=O)O)c2)ccc1-c1nc2[nH]nnc2c(=O)[nH]1 [Compound 127, 2-(4-(3-Ethoxy-4-(7-oxo-6,7-dihydro-3H-[1,2,3]triazolo[4,5-d]pyrimidin-5-yl)phenyl)-1H-pyrazol-1-yl)acetic acid] | ≤ 10 | ≤ 10
CCOc1cc(-c2noc(=O)[nH]2)ccc1-c1nc2[nH]nnc2c(=O)[nH]1 [Compound 150, 3-(3-ethoxy-4-(7-oxo-6,7-dihydro-3H-[1,2,3]triazolo[4,5-d]pyrimidin-5-yl)phenyl)-1,2,4-oxadiazol-5(4H)-one] | ≤ 10 | ≤ 10
CCOc1cc(-c2ccc(C(=O)O)nc2)ccc1-c1nc2[nH]nnc2c(=O)[nH]1 [Compound 125, 5-(3-Ethoxy-4-(7-oxo-6,7-dihydro-3H-[1,2,3]triazolo[4,5-d]pyrimidin-5-yl)phenyl)picolinic acid] | ≤ 10 | ≤ 10
CCOc1cc(-c2ccc(C(=O)OC)cc2)ccc1-c1nc2[nH]nnc2c(=O)[nH]1 [Compound 108, Methyl 3′-ethoxy-4′-(7-oxo-6,7-dihydro-3H-[1,2,3]triazolo[4,5-d]pyrimidin-5-yl)-[1,1′-biphenyl]-4-carboxylate] | ≤ 10 | ≤ 10
CCOc1cc(-c2nnn[nH]2)ccc1-c1nc2[nH]nnc2c(=O)[nH]1 [Compound 143, 5-(2-ethoxy-4-(1H-tetrazol-5-yl)phenyl)-3,6-dihydro-7H-[1,2,3]triazolo[4,5-d]pyrimidin-7-one] | ≤ 10 | ≤ 10

From US11053251B2, “GPR35 modulators” (Prometheus Biosciences, Inc., priority 2019, dated 2021)
